# Entries after “also recorded” stand apart in the source; their conditions may differ.
# Tested on: patients with chronic tension-type headache
# Assay: Double-blind crossover i.v. L-NMMA vs placebo: headache intensity on VAS and VRS
# Format: in vivo, human
# Description: Sixteen patients With a diagnosis of chronic tension-type headache according to the criteria of the International Headache Society, (headache Classification Committee 1988) were recruited from the out-patient headache clinic at Glostrup Hospital. There were 12 women and 4 men with a mean age (range) of 38.5 (23-52) years. Five patients with coexisting infrequent migraine (£ one day/month) were accepted. All patients completed a diagnostic headache diary during a 4-week run-in period (Russell et al. 1992). At screening, a full physical and neurological examination, including 12-lead ECG were carried out. Blood samples for routine haematological and biochemical testing, and urine sample for urine analysis were taken. The patients were not allowed to take analgesics 12 hours prior to the treatment. Exclusion criteria were: daily medication (including prophylactic headache therapy but not oral contraceptives); pregnant or breast feeding women; abuse of analgesics (corresponding to>2 gm of aspirin/day) or alcohol, serious somatic or psychiatric diseases including depression (Hamilton Depression Score ^317 (Hamilton 1960)); ischemic heart disease; a supine diastolic blood pressure >90 mmHg or heart rate <50 beats per minute at study entry. All patients gave written informed consent to participate in the study, which was approved by The local ethics committee and conducted in accordance with the Declaration of Helsinki.
# Randomization (Med.Stat) and drug preparation were performed by staff not involved in the study. The medication was given over 15 minutes into an antecubital vein (Braun Perfusor). The following parameters were measured at baseline and […] post administration: headache intensity on a 100-mm Visual Analog Scale (VAS) (0-no headache and 100-worst imaginable headache) and on a Verbal Rating Scale (VRS) from 0-10 (0-no headache; 5-moderate headache; 10-worst imaginable headache). Blood pressure and pulse rate were measured 5 minutes prior to administration of treatment and at 5, 10, 15, 20, 25, 30, 60, 90 and 120 minutes post administration. Twelve-lead ECG was monitored continuously. Any adverse events were recorded. Patient with unrelieved headache at 120 minutes post treatment were allowed to take rescue medication. All patients were asked to record details of the following on a diary card at 4, 8, 12, 16, 20 and 24 hours post administration, headache intensity on VRS, any medication taken and adverse events. Between 4-7 days after each treatment, the patients returned to the clinic, the diary cards were collected and any adverse events were noted.
# Primary endpoint was the reduction of pain intensity over time on active treatment compared to placebo. The secondary endpoints were reduction of pain intensity at 30, 60, 90 and 120 minutes post dosing on VAS and VRS compared to pre-treatment pain score within each treatment. Comparison of pain intensity on VAS, blood pressure and pulse rate over time between treatments were performed With ANOVA. Paired-Samples T Test was used to compare pre-treatment pain score on VAS with pain score at 30, 60, 90, 120 minutes post dosing within each treatment. The sum of differences between the pre-treatment VRS score and the VRS score at 30, 60, 90, 120 minutes post dosing was calculated in order to obtained a summary measure of pain score for each treatment (Matthews et al. 1990). These sums of differences for each treatment were compared by Wilcoxon Signed Rank test. Five percent was accepted as level of significance.
# The recordings were performed in a standardized manner by the same observer, a trained technician (HA), throughout the study. All parameters were recorded at baseline, 60 and 120 minutes after start of infusion. The trial was designed as a double blind, placebo controlled, crossover study. […] The patients were not allowed to take analgesics 12 hours prior to the examination. […]
compound,measurement,setting,value
"CN=C(N)NCCC[C@H](N)C(=O)O.Cl [L-NMMA, L-N^G methyl arginine hydrochloride]",Pain intensity (VAS) over time compared with placebo,"6 mg/kg i.v., 16 patients, ANOVA, hydrochloride",reduced pain intensity (VAS) over time significantly more than placebo; also recorded: effective in the treatment of patients with chronic tension-type headache; also recorded: significantly reduced
same,Pain score compared with pre-treatment value within treatment,"6 mg/kg i.v., post treatment time points, hydrochloride","significantly reduced after 30, 60, 90 and 120 minutes; also recorded: significantly reduced at each time point"
same,"Pain score on VAS, 30 minutes","30 minutes post dosing, 100-mm VAS, 6 mg/kg i.v., mean (SD)",38 ± 18
same,"Pain score on VAS, 60 minutes","60 minutes post dosing, 100-mm VAS, 6 mg/kg i.v., mean (SD)",35 ± 18
same,"Pain score on VAS, 90 minutes","90 minutes post dosing, 100-mm VAS, 6 mg/kg i.v., mean (SD)",34 ± 21
same,"Pain score on VAS, 120 minutes","120 minutes post dosing, 100-mm VAS, 6 mg/kg i.v., mean (SD)",33 ± 21
same,Pain intensity on VRS compared with placebo,"Verbal Rating Scale 0-10, 6 mg/kg i.v., p=0.02",significantly lower
same,Duration of antinociceptive effect on headache intensity and of reduction of muscle hardness and tenderness,"after start of infusion, 6 mg/kg i.v.",at least 120 minutes
same,"Pain score on VAS, baseline","before treatment, 100-mm VAS, 6 mg/kg i.v. over 15 minutes, mean (SD), 16 patients",49 ± 16

# From patent US6649605B2, “Treatment of tension-type headaches with NMDA receptor antagonists” (Head Explorer A/S, priority 1996, dated 2003)
